The values that follow come from US11478461B2, “[1.1.1] bicyclo compounds as indoleamine 2,3-dioxygenase inhibitors” (Merck Sharp & Dohme Corp., priority 2018, dated 2022).

Molecules are shown by their SMILES.

The assay has as its target IDO1 (Homo sapiens, UniProt P14902). Description: IDO1 Cellular Assay in Hela Cells Stimulated with IFNγ. The settings on record: IFNγ 100 ng/mL, 300 uM L-tryptophan, about 48 hours, fluorescence readout, read-out: IDO1 HELA Cell Assay, IC50. Format: cell-based. As for the experimental part: Biological Assays IDO1 Cellular Assay in Hela Cells Stimulated with IFNγ
Hela cells were cultured in complete Hela culture medium ([…], 10% heat-inactivated fetal bovine serum) and expanded to about 1×10^9 cells. The cells were then collected and frozen down at 10×10^6 cells/vial in 1 mL frozen medium (90% complete Hela culture medium, 10% DMSO).
Compounds to be tested were serially diluted in ten 3-fold steps in DMSO starting from 10 mM DMSO stocks in Echo low volume plate(s). Compound dilutions or DMSO alone were then dispensed from the dilution plate(s) into Greiner black 384-well assay plate(s) (catalog #781086, 50 nL/well) using an Echo 550 acoustic liquid handler (Labcyte).
Frozen Hela cells were thawed and transferred into Hela assay medium (99% complete Hela culture medium, 1% Pen/Strep) with 20 mL medium/vial of cells. The cells were spun down at 250 g in a table top centrifuge for 5 min and suspended in same volume of Hela assay medium. […] Sterile L-tryptophan were added to the cells with final concentration of 300 uM L-tryptophan. A small aliquot (2 mL/plate) of Hela cells were set aside and were not treated with IFNγ, to serve as the Max-E control. The rest of Hela cells were added with sterile IFNγ (Cat #285-IF, R & D systems) with a final concentration of 100 ng/mL.
Hela cells with and without IFNγ were dispensed to the respective wells of 384-well assay plates containing the compounds. The plates were incubated for about 48 hours at a 37° C., 5% CO2 incubator. Afterwards, 12 μL of 0.5 M methyl isonipecotate in dimethyl sulfoxide were added into each well and the plates were sealed and incubated at 37° C. without CO2 overnight. The plates were centrifuged for 1 min at 200×g. The resulting fluorescence was measured in a Spectramax plate reader (Molecular Devices) with a 400 nm excitation filter and a 510 nm emission filter.
Potencies were calculated by […] least squares fit to the four parameter logistic IC50 equation.

Chain of IDO1 (P14902 whole entry): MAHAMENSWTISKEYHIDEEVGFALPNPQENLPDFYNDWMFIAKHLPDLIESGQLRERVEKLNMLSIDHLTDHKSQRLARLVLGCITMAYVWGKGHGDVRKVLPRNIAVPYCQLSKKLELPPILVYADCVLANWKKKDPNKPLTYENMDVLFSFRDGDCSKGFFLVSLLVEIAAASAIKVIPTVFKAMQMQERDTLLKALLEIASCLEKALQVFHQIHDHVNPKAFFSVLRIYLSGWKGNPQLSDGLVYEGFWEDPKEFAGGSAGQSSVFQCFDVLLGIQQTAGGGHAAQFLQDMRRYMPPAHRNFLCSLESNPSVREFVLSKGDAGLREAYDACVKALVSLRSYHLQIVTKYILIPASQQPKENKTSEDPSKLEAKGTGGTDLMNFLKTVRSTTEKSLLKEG

Regarding `CC(C(=O)Nc1ccc(Cl)cc1)C12CC(NC(=O)c3cccc(C#N)c3)(C1)C2` (single isomer, unassigned) [Example 13, N-(3-(1-((4-chlorophenyl)amino)-1-oxopropan-2-yl)bicyclo[1.1.1]pentan-1-yl)-3-cyanobenzamide], the IC50 (in general, the concentration needed to halve the response being measured) amounted to 133 nM.

Consider `C[C@H](C(=O)Nc1cncc(Cl)c1)C12CC(NC(=O)c3ccc(Cl)c(Cl)c3)(C1)C2` [Example 94, (S)-3-chloro-5-(2-(3-(3,4-dichlorobenzamido)bicyclo[1.1.1]pentan-1-yl)propanamido)pyridin-1-ium 2,2,2-trifluoroacetate], for which the IC50 worked out at 7.78 nM.

Regarding `C[C@@H](C(=O)Nc1ccc(F)cc1)C12CC(NC(=O)c3cccc(C(F)(F)F)c3)(C1)C2` [Example 42, N-[3-[(1R)-2-(4-fluoroanilino)-1-methyl-2-oxo-ethyl]-1-bicyclo[1.1.1]pentanyl]-3-(trifluoromethyl)benzamide], the IC50 came to 5.02 nM.

`CC(C(=O)Nc1ccc(F)cc1)C12CC(NC(=O)c3cccc4c3CC(=O)N4)(C1)C2` (stereo not drawn) [Example 121, N-[3-[2-(4-fluoroanilino)-1-methyl-2-oxo-ethyl]-1-bicyclo[1.1.1]pentanyl]-2-oxo-indoline-4-carboxamide]: the IC50 was determined as 131 nM.

Turning to `C[C@H](C(=O)Nc1ccc(F)cc1)C12CC(NC(=O)Nc3cccc4ccccc34)(C1)C2` [Example 86, (S)-N-(4-fluorophenyl)-2-(3-(3-(naphthalen-1-yl)ureido)bicyclo[1.1.1]pentan-1-yl)propanamide], the IC50 came out at 84.8 nM.

For the molecule `Cc1cncc(C(=O)NC23CC(C(C)C(=O)Nc4ccc(F)cc4)(C2)C3)c1` (stereo not drawn) [Example 122, N-[3-[2-(4-fluoroanilino)-1-methyl-2-oxo-ethyl]-1-bicyclo[1.1.1]pentanyl]-5-methyl-pyridin-1-ium-3-carboxamide], the IC50 came out at 132 nM.

For the molecule `O=C(NC12CC(C3(NC(=O)c4ccc(F)cc4)CC3)(C1)C2)OCc1ccccc1` [Example 23, Benzyl (3-(1-(4-fluorobenzamido)cyclopropyl)bicyclo[1.1.1]pentan-1-yl)carbamate], the IC50 is 107 nM.

For `Cc1ccc(C(=O)NC23CC([C@H](C)C(=O)Nc4ccc(F)cc4)(C2)C3)cc1F` [Example 58, 3-fluoro-N-[3-[(1S)-2-(4-fluoroanilino)-1-methyl-2-oxo-ethyl]-1-bicyclo[1.1.1]pentanyl]-4-methyl-benzamide], the IC50 was found to be 16.6 nM.

`C[C@H](C(=O)Nc1ccc(F)cc1)C12CC(NC(=O)c3cccc(Cl)c3F)(C1)C2` [Example 51, 3-chloro-2-fluoro-N-[3-[(1S)-2-(4-fluoroanilino)-1-methyl-2-oxo-ethyl]-1-bicyclo[1.1.1]pentanyl]benzamide]: the IC50 amounted to 226 nM.

On to `C[C@H](C(=O)Nc1ccc(F)c(C(F)(F)F)c1)C12CC(NC(=O)c3ccc(Cl)c(Cl)c3)(C1)C2` [Example 95, (S)-3,4-dichloro-N-(3-(1-((4-fluoro-3-(trifluoromethyl)phenyl)amino)-1-oxopropan-2-yl)bicyclo[1.1.1]pentan-1-yl)benzamide], for which the IC50 came out at 60.6 nM.

In the case of `Cc1noc(C(=O)NC23CC(C(C)C(=O)Nc4ccc(F)cc4)(C2)C3)n1` (stereo not drawn) [Example 114, N-[3-[2-(4-fluoroanilino)-1-methyl-2-oxo-ethyl]-1-bicyclo[1.1.1]pentanyl]-3-methyl-1,2,4-oxadiazole-5-carboxamide], the IC50 stood at 59.6 nM.

Regarding `CC(C(=O)Nc1ccc(Cl)cc1)C12CC(NC(=O)c3cccc(Cl)c3)(C1)C2` (single isomer, unassigned) [Example 6, 3-Chloro-N-(3-(1-((4-chlorophenyl)amino)-1-oxopropan-2-yl)bicyclo [1.1.1]pentan-1-yl) Benzamide], the IC50 is 38.6 nM.

`C[C@H](C(=O)Nc1ccc(F)cc1)C12CC(NC(=O)Nc3ccc(F)c(Cl)c3)(C1)C2` [Example 83, (S)-2-(3-(3-(3-chloro-4-fluorophenyl)ureido)bicyclo [1.1.1]pentan-1-yl)-N-(4-fluorophenyl)propanamide]: the IC50 turned out to be 39 nM.

With `CCc1cc(C(=O)NC23CC(C(C)C(=O)Nc4ccc(F)cc4)(C2)C3)no1` (stereo not drawn) [Example 110, 5-ethyl-N-[3-[2-(4-fluoroanilino)-1-methyl-2-oxo-ethyl]-1-bicyclo[1.1.1]pentanyl]isoxazole-3-carboxamide], the IC50 was 17.7 nM.

For `CC(C)(NC(=O)c1ccc(F)cc1)C12CC(NC(=O)c3ccc(Cl)c(Cl)c3)(C1)C2` [Example 103, 3,4-Dichloro-N-(3-(2-(4-fluorobenzamido)propan-2-yl)bicyclo[1.1.1]pentan-1-yl)benzamide], the IC50 came out at 46.9 nM.

For `Cc1cc(C(=O)NC23CC([C@H](C)C(=O)Nc4ccc(F)cc4)(C2)C3)ccc1Cl` [Example 50, 4-chloro-N-[3-[(1S)-2-(4-fluoroanilino)-1-methyl-2-oxo-ethyl]-1-bicyclo[1.1.l]pentanyl]-3-methyl-benzamide], the IC50 came out at 3.29 nM.

With `C[C@H](C(=O)Nc1ccc(F)cc1)C12CC(NC(=O)c3ccc(C#N)c(Cl)c3)(C1)C2` [Example 150, (S)-3-chloro-4-cyano-N-(3-(1-((4-fluorophenyl)amino)-1-oxopropan-2-yl)bicyclo[1.1.1]pentan-1-yl)benzamide], the IC50 amounted to 48.3 nM.

As for `Cc1cc(C(=O)NC23CC([C@H](C)C(=O)Nc4ccc(F)cc4)(C2)C3)ccc1F` [Example 54, 4-fluoro-N-[3-[(1S)-2-(4-fluoroanilino)-1-methyl-2-oxo-ethyl]-1-bicyclo[1.1.1]pentanyl]-3-methyl-benzamide], the IC50 came to 187 nM.

`CC(C(=O)Nc1ccc(Cl)cc1)C12CC(NC(=O)OC3CC3)(C1)C2` (single isomer, unassigned) [Example 19, Cyclopropyl (3-(1-((4-chlorophenyl)amino)-1-oxopropan-2-yl)bicyclo [1.1.1]pentan-1-yl) carbamate]: the IC50 turned out to be 564 nM.

As for `CC(C(=O)Nc1ccc(F)cc1)C12CC(NC(=O)c3cc4ccccn4c3)(C1)C2` (stereo not drawn) [Example 116, N-[3-[2-(4-fluoroanilino)-1-methyl-2-oxo-ethyl]-1-bicyclo[1.1.1]pentanyl]indolizine-2-carboxamide], the IC50 was found to be 69.2 nM.

Regarding `Cc1ccc(C(=O)NC23CC([C@@H](C)C(=O)Nc4ccc(F)cc4)(C2)C3)cc1Cl` [Example 44, 3-chloro-N-[3-[(1R)-2-(4-fluoroanilino)-1-methyl-2-oxo-ethyl]-1-bicyclo[1.1.1]pentanyl]-4-methyl-benzamide], the IC50 is 2.28 nM.

Take `C[C@H](C(=O)Nc1ccc(F)cc1)C12CC(NC(=O)c3cncc(Cl)c3)(C1)C2` [Example 59, 5-chloro-N-[3-[(1S)-2-(4-fluoroanilino)-1-methyl-2-oxo-ethyl]-1-bicyclo[1.1.1]pentanyl]pyridin-1-ium-3-carboxamide]: the IC50 amounted to 6.52 nM.

For `CC(C(=O)Nc1ccc(F)cc1)C12CC(NC(=O)c3cccc(OC(F)(F)F)c3)(C1)C2` (stereo not drawn) [Example 109, N-[3-[2-(4-fluoroanilino)-1-methyl-2-oxo-ethyl]-1-bicyclo[1.1.1]pentanyl]-3-(trifluoromethoxy)benzamide], the IC50 stood at 11.2 nM.

Consider `O=C(NC1(C23CC(NC(=O)c4ccc(Cl)cn4)(C2)C3)CC1)c1ccc(F)cc1` [Example 25, 5-chloro-N-(3-(1-(4-fluorobenzamido)cyclopropyl)bicyclo[1.1.1]pentan-1-yl)picolinamide], for which the IC50 was 83.2 nM.
